Laboratory results reported in US11590116B2 (THERAVANCE BIOPHARMA R&D IP, LLC, priority 2019, dated 2023).

Legend:
[1] = test system: TGF-β-stimulated SMAD3 phosphorylation in BEAS-2B cells; assay: Cellular ALK5 potency assay, inhibition of TGF-β stimulated pSMAD3 formation in BEAS-2B cells; format: cell-based; conditions: Homo sapiens; inhibition of TGF-β stimulated pSMAD3 formation, BEAS-2B cells; read-out: BEAS2B pIC50 (converted)
Method in brief: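 AlphaLISA pSMAD3 read-out, beads incubated overnight. Human BEAS-2B cells: 1 h compound preincubation (37 °C, 5% CO2), then 30 min TGF-β at 10 ng/mL final, immediate lysis. Values are pIC50 relative to stimulated, compound-free baseline.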

[2] = target: T1, recombinant human ALK5 (TGF-βR1) protein (Homo sapiens, UniProt P36897); assay: Biochemical ALK5 (TGF-βR1) assay to measure pKi (LANCE Ultra ULight kinase assay); conditions: apparent pKi from pIC50 by Cheng-Prusoff, read-out: ALK5 pKi (converted)
T1 construct: purchased Life Technologies PR9075A
T1 sequence (P36897 34-503): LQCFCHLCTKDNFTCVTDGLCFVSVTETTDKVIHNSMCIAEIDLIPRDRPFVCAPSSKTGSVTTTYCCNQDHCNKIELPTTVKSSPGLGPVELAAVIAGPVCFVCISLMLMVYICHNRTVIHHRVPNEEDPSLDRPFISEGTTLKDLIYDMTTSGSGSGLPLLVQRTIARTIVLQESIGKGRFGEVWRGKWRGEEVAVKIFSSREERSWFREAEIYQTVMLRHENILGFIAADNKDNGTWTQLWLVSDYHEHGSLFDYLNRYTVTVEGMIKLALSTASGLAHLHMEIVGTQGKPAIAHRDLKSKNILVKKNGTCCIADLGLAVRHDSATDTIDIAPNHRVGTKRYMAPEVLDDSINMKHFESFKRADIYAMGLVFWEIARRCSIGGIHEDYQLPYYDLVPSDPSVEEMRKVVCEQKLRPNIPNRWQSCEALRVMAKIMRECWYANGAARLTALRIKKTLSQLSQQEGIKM
Method in brief: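 Dose range 10 μM–25 pM; enzyme + compound 60 min RT; ATP added (5× stock 125 μM, 2 mM DTT); 60 min 37 °C; stop with EDTA + Eu anti-phospho-Topo IIα Thr1342 Ab; TR-FRET ex 320/340, em 665 nm. 4-param pIC50 → pKi (Cheng-Prusoff).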

Row | Structure (SMILES) | IC50 [1] [nM] | Ki [2] [nM]
1 | CNCc1c(-c2cn[nH]c2)cnc2ccc(-c3c[nH]nc3-c3cccc(C)n3)cc12 [Compound 471, N-methyl-1-[6-[3-(6-methyl-2-pyridyl)-1H-pyrazol-4-yl]-3-(1H-pyrazol-4-yl)-4-quinolyl]methanamine] | 25.1 to 158 | 0.0398 to 0.316
2 | Cc1cccc(-c2[nH]cnc2-c2ccc3ncc(C4=CCNCC4)cc3c2)n1 [Compound 472, 6-[5-(6-methyl-2-pyridyl)-1H-imidazol-4-yl]-3-(1,2,3,6-tetrahydropyridin-4-yl)quinoline] | < 20 | < 0.0316
3 | Cc1cccc(-c2nc3ccccn3c2-c2ccc3ncc(N4CCNCC4)cc3n2)n1 [Compound 473, 2-[2-(6-methyl-2-pyridyl)imidazo[1,2-a]pyridin-3-yl]-7-piperazin-1-yl-1,5-naphthyridine] | 25.1 to 158 | 0.0398 to 0.316
4 | Cc1nc(-c2n[nH]cc2-c2ccc3ncc(-c4cnn(CC5CNC5)c4)cc3n2)ccc1F [Compound 474, 7-[1-(azetidin-3-ylmethyl)pyrazol-4-yl]-2-[3-(5-fluoro-6-methyl-2-pyridyl)-1H-pyrazol-4-yl]-1,5-naphthyridine] | 25.1 to 158 | < 0.0316
5 | Cc1cccc(-c2nnn(Cc3ccccc3)c2-c2ccc3ncc(N4CCC(N5CCN(C)CC5)CC4)cc3n2)n1 [Compound 475, 2-[3-benzyl-5-(6-methyl-2-pyridyl)triazol-4-yl]-7-[4-(4-methylpiperazin-1-yl)-1-piperidyl]-1,5-naphthyridine] | 200 to 1260 | 0.0398 to 0.316
6 | Cc1cccc(-c2[nH]cnc2-c2ccc3ncc(NCCN4CC(N)C4)cc3c2)n1 [Compound 476, N-[2-(3-aminoazetidin-1-yl)ethyl]-6-[5-(6-methyl-2-pyridyl)-1H-imidazol-4-yl]quinolin-3-amine] | 25.1 to 158 | 0.0398 to 0.316
7 | CNCCn1cc(-c2cnc3ccc(-c4c[nH]nc4-c4ccc(F)c(C)n4)nc3c2)cn1 [Compound 477, 2-[4-[6-[3-(5-fluoro-6-methyl-2-pyridyl)-1H-pyrazol-4-yl]-1,5-naphthyridin-3-yl]pyrazol-1-yl]-N-methyl-ethanamine] | < 20 | < 0.0316
8 | Cc1cccc(-c2n[nH]cc2-c2ccc3ncc(NCCN4CCN(C(C)C)CC4)cc3n2)n1 [Compound 478, N-[2-(4-isopropylpiperazin-1-yl)ethyl]-6-[3-(6-methyl-2-pyridyl)-1H-pyrazol-4-yl]-1,5-naphthyridin-3-amine] | 25.1 to 158 | < 0.0316
9 | Cc1cccc(-c2[nH]nnc2-c2ccc3ncc(N4CCNCC4)cc3n2)n1 [Compound 479, 2-[5-(6-methyl-2-pyridyl)-1H-triazol-4-yl]-7-piperazin-1-yl-1,5-naphthyridine] | 200 to 1260 | 0.398 to 3.16
10 | Cc1cccc(-c2n[nH]cc2-c2ccc3ncc(-c4nc(C(N)=O)co4)cc3n2)n1 [Compound 480, 2-[6-[3-(6-methyl-2-pyridyl)-1H-pyrazol-4-yl]-1,5-naphthyridin-3-yl]oxazole-4-carboxamide] | 25.1 to 158 | 0.0398 to 0.316
11 | CNCCn1cc(-c2cnc3ccc(-c4c[nH]nc4-c4cccc(C(F)F)n4)nc3c2)cn1 [Compound 481, 2-[4-[6-[3-[6-(difluoromethyl)-2-pyridyl]-1H-pyrazol-4-yl]-1,5-naphthyridin-3-yl]pyrazol-1-yl]-N-methyl-ethanamine] | 25.1 to 158 | < 0.0316
12 | Cc1nc(-c2n[nH]cc2-c2ccc3ncc(-c4cn[nH]c4)cc3n2)ccc1F [Compound 482, 2-[3-(5-fluoro-6-methyl-2-pyridyl)-1H-pyrazol-4-yl]-7-(1H-pyrazol-4-yl)-1,5-naphthyridine] | < 20 | < 0.0316
13 | Cc1nc(-c2n[nH]cc2-c2ccc3ncc(-c4nc(C)c(CCN)[nH]4)cc3n2)ccc1F [Compound 483, 2-[2-[6-[3-(5-fluoro-6-methyl-2-pyridyl)-1H-pyrazol-4-yl]-1,5-naphthyridin-3-yl]-4-methyl-1H-imidazol-5-yl]ethanamine] | 200 to 1260 | 0.0398 to 0.316
14 | Cc1cccc(-c2n[nH]cc2-c2ccc3ncc(-c4c[nH]nc4C(F)(F)F)cc3n2)n1 [Compound 484, 2-[3-(6-methyl-2-pyridyl)-1H-pyrazol-4-yl]-7-[3-(trifluoromethyl)-1H-pyrazol-4-yl]-1,5-naphthyridine] | < 20 | 0.0398 to 0.316
15 | Cc1cccc(-c2[nH]ncc2-c2ccc3ncc(C(=O)OC4CCNCC4)cc3n2)n1 [Compound 485, 4-piperidyl 6-[5-(6-methyl-2-pyridyl)-1H-pyrazol-4-yl]-1,5-naphthyridine-3-carboxylate] | 25.1 to 158 | 0.0398 to 0.316
16 | Cc1cccc(-c2n[nH]cc2-c2ccc3ncc(OCC(=O)N4CCOCC4)cc3n2)n1 [Compound 486, 2-[[6-[3-(6-methyl-2-pyridyl)-1H-pyrazol-4-yl]-1,5-naphthyridin-3-yl]oxy]-1-morpholino-ethanone] | 1580 to 10000 | 3.98 to 31.6
17 | CNCCn1cc(-c2cnc3ccc(-c4c[nH]nc4-c4cccc(C)n4)nc3c2)cn1 [Compound 487, N-methyl-2-[4-[6-[3-(6-methyl-2-pyridyl)-1H-pyrazol-4-yl]-1,5-naphthyridin-3-yl]pyrazol-1-yl]ethanamine] | < 20 | < 0.0316
18 | Cc1cccc(-c2n[nH]cc2-c2ccc3ncc(Nc4ccc(N5CCNCC5)cc4)cc3c2)n1 [Compound 488, 6-[3-(6-methyl-2-pyridyl)-1H-pyrazol-4-yl]-N-(4-piperazin-1-ylphenyl)quinolin-3-amine] | 25.1 to 158 | 0.0398 to 0.316
19 | Cc1cccc(-c2n[nH]cc2-c2ccc3ncc(-c4[nH]nc5c4CNCC5)cc3n2)n1 [Compound 489, 2-[3-(6-methyl-2-pyridyl)-1H-pyrazol-4-yl]-7-(4,5,6,7-tetrahydro-2H-pyrazolo[4,3-c]pyridin-3-yl)-1,5-naphthyridine] | 200 to 1260 | 0.0398 to 0.316
20 | Cc1nc(-c2n[nH]cc2-c2ccc3ncc(-c4cnn([C@@H]5CCCC[C@H]5N)c4)cc3n2)ccc1F [Compound 490, (1R,2R)-2-(4-(6-(3-(5-fluoro-6-methylpyridin-2-yl)-1H-pyrazol-4-yl)-1,5-naphthyridin-3-yl)-1H-pyrazol-1-yl)cyclohexan-1-amine] | < 20 | < 0.0316
21 | Cc1cccc(-c2[nH]cnc2-c2ccc3ncc(N4CCNC(CC(=O)OCC5CNC5)C4)cc3c2)n1 (stereo not drawn) [Compound 491, azetidin-3-ylmethyl 2-[4-[6-[5-(6-methyl-2-pyridyl)-1H-imidazol-4-yl]-3-quinolyl]piperazin-2-yl]acetate] | 200 to 1260 | 0.0398 to 0.316
22 | Cc1cccc(-c2n[nH]cc2-c2ccc3ncc(N4CCC[C@H](N(C)C)C4)cc3n2)n1 [Compound 492, (3S)-N,N-dimethyl-1-[6-[3-(6-methyl-2-pyridyl)-1H-pyrazol-4-yl]-1,5-naphthyridin-3-yl]piperidin-3-amine] | 25.1 to 158 | 0.0398 to 0.316
23 | Cc1cccc(-c2[nH]cnc2-c2ccc3ncc(-c4cccc5c4CNCC5)cc3c2)n1 [Compound 493, 6-[5-(6-methyl-2-pyridyl)-1H-imidazol-4-yl]-3-(1,2,3,4-tetrahydroisoquinolin-8-yl)quinoline] | 200 to 1260 | 3.98 to 31.6
24 | CNCCn1ccc(-c2cnc3ccc(-c4nc[nH]c4-c4cccc(C)n4)cc3c2)n1 [Compound 494, N-methyl-2-[3-[6-[5-(6-methyl-2-pyridyl)-1H-imidazol-4-yl]-3-quinolyl]pyrazol-1-yl]ethanamine] | 25.1 to 158 | 0.0398 to 0.316
